HELM strings list units from the 5' end as sugar, base in round brackets, then linkage (d deoxyribose, r ribose, m 2'-O-methyl, p phosphodiester). Strings are as the collection lists them; they lack the last nucleoside at the 3' end of the tested compound. [moe] = 2'-O-(2-methoxyethyl) (MOE); [sp] = phosphorothioate linkage; [m5C] = 5-methylcytosine
Target: UBE3A-ATS
Assay: mouse, dose not given
Conditions: ASO

| Substance | 3 h FOB score |
| --- | --- |
| RNA1{[moe](G)[sp].[moe](T)p.[moe](G)p.[moe](T)p.[moe](T)p.d(T)[sp].d(A)[sp].d(T)[sp].d([m5C])[sp].d([m5C])[sp].d(A)[sp].d(A)[sp].d(A)[sp].d([m5C])[sp].d([m5C])[sp].[moe](A)p.[moe](A)p.[moe](G)[sp].[moe](G)}$$$$ (last 3' nucleoside missing) | 3 score 0-7 |
| RNA1{[moe](G)[sp].[moe](T)p.[moe](G)p.[moe](T)p.[moe](T)p.d(T)[sp].d(T)[sp].d(T)[sp].d([m5C])[sp].d([m5C])[sp].d(A)[sp].d(T)[sp].d(T)[sp].d(T)[sp].d(T)[sp].[moe](T)p.[moe]([m5C])p.[moe](T)[sp].[moe]([m5C])}$$$$ (last 3' nucleoside missing) | 0 score 0-7 |
| RNA1{[moe](G)[sp].[moe](T)p.[moe](G)p.[moe](T)p.[moe]([m5C])p.d(A)[sp].d(T)[sp].d(A)[sp].d(T)[sp].d(G)[sp].d(T)[sp].d(A)[sp].d(G)[sp].d([m5C])[sp].d(A)[sp].[moe](A)p.[moe](T)p.[moe](T)[sp].[moe](A)}$$$$ (last 3' nucleoside missing) | 6.5 score 0-7 |
| RNA1{[moe](G)[sp].[moe](T)p.[moe](G)p.[moe](T)p.d(G)[sp].d(T)[sp].d(T)[sp].d(T)[sp].d(T)[sp].d(T)[sp].d([m5C])[sp].d([m5C])[sp].d(A)[sp].d(T)[sp].[moe](T)p.[moe](T)p.[moe](T)p.[moe](T)[sp].[moe]([m5C])}$$$$ (last 3' nucleoside missing) | 0 score 0-7 |
| RNA1{[moe](G)[sp].[moe](T)p.[moe](G)p.[moe](T)p.d(T)[sp].d(T)[sp].d(T)[sp].d(T)[sp].d([m5C])[sp].d([m5C])[sp].d(A)[sp].d(T)[sp].d(T)[sp].d(T)[sp].[moe](T)p.[moe](T)p.[moe]([m5C])p.[moe](T)[sp].[moe]([m5C])}$$$$ (last 3' nucleoside missing) | 0 score 0-7 |
| RNA1{[moe](G)[sp].[moe](T)p.[moe](G)p.[moe]([m5C])[sp].d(A)[sp].d(T)[sp].d(A)[sp].d([m5C])[sp].d([m5C])[sp].d([m5C])[sp].d(A)[sp].d(G)[sp].[moe](G)p.[moe](G)p.[moe](T)p.[moe](A)[sp].[moe](G)}$$$$ (last 3' nucleoside missing) | 1 score 0-7 |
| RNA1{[moe](G)[sp].[moe](T)p.[moe](G)p.[moe]([m5C])p.[moe](A)[sp].d(T)[sp].d(A)[sp].d([m5C])[sp].d([m5C])[sp].d([m5C])[sp].d(A)[sp].d(G)[sp].d(G)[sp].[moe](G)p.[moe](T)p.[moe](A)[sp].[moe](G)}$$$$ (last 3' nucleoside missing) | 5.5 score 0-7 |
| RNA1{[moe](G)[sp].[moe](T)p.[moe](G)p.[moe]([m5C])p.[moe](A)p.[moe](T)[sp].d(A)[sp].d([m5C])[sp].d([m5C])[sp].d([m5C])[sp].d(A)[sp].d(G)[sp].d(G)[sp].d(G)[sp].[moe](T)p.[moe](A)[sp].[moe](G)}$$$$ (last 3' nucleoside missing) | 4 score 0-7 |
| RNA1{[moe](G)[sp].[moe](T)p.[moe](G)p.[moe]([m5C])p.[moe](A)p.[moe](T)p.d(A)[sp].d([m5C])[sp].d([m5C])[sp].d([m5C])[sp].d(A)[sp].d(G)[sp].d(G)[sp].d(G)[sp].d(T)[sp].d(A)[sp].[moe](G)p.[moe](G)[sp].[moe](A)}$$$$ (last 3' nucleoside missing) | 1 score 0-7 |
| RNA1{[moe](G)[sp].[moe](T)p.[moe](G)p.[moe]([m5C])p.[moe](A)p.d(T)[sp].d(A)[sp].d([m5C])[sp].d([m5C])[sp].d([m5C])[sp].d(A)[sp].d(G)[sp].d(G)[sp].d(G)[sp].d(T)[sp].[moe](A)p.[moe](G)p.[moe](G)[sp].[moe](A)}$$$$ (last 3' nucleoside missing) | 1.2 score 0-7 |
| RNA1{[moe](G)[sp].[moe](T)p.[moe](G)p.[moe]([m5C])p.[moe]([m5C])p.d(T)[sp].d(T)[sp].d(T)[sp].d([m5C])[sp].d(T)[sp].d(A)[sp].d(T)[sp].d(T)[sp].d(T)[sp].d([m5C])[sp].[moe](A)p.[moe](G)p.[moe](A)[sp].[moe]([m5C])}$$$$ (last 3' nucleoside missing) | 0 score 0-7 |
| RNA1{[moe](G)[sp].[moe](T)p.[moe](G)p.[moe]([m5C])p.d(A)[sp].d(T)[sp].d(A)[sp].d([m5C])[sp].d([m5C])[sp].d([m5C])[sp].d(A)[sp].d(G)[sp].d(G)[sp].d(G)[sp].[moe](T)p.[moe](A)p.[moe](G)p.[moe](G)[sp].[moe](A)}$$$$ (last 3' nucleoside missing) | 2 score 0-7 |
| RNA1{[moe](G)[sp].[moe](T)p.[moe](T)p.[moe](A)p.[moe](G)p.d(G)[sp].d(T)[sp].d(T)[sp].d(A)[sp].d(G)[sp].d(T)[sp].d(G)[sp].d([m5C])[sp].d(A)[sp].d([m5C])[sp].[moe](A)p.[moe](G)p.[moe](A)[sp].[moe](T)}$$$$ (last 3' nucleoside missing) | 6 score 0-7 |
| RNA1{[moe](G)[sp].[moe](T)p.[moe](T)p.[moe](T)p.[moe](A)p.d(G)[sp].d(G)[sp].d(T)[sp].d([m5C])[sp].d(A)[sp].d(A)[sp].d([m5C])[sp].d([m5C])[sp].d(A)[sp].d(A)[sp].[moe](T)p.[moe](T)p.[moe](T)[sp].[moe](G)}$$$$ (last 3' nucleoside missing) | 1 score 0-7 |
| RNA1{[moe](G)[sp].[moe](T)p.[moe](T)p.[moe](T)p.[moe](A)p.d(T)[sp].d(A)[sp].d(G)[sp].d(G)[sp].d(G)[sp].d(T)[sp].d(G)[sp].d(G)[sp].d(T)[sp].d(T)[sp].[moe](G)p.[moe](G)p.[moe](T)[sp].[moe](T)}$$$$ (last 3' nucleoside missing) | 7 score 0-7 |
| RNA1{[moe](G)[sp].[moe](T)p.[moe](T)p.[moe](T)p.[moe](T)p.[moe](T)p.d([m5C])[sp].d([m5C])[sp].d(A)[sp].d(T)[sp].d(T)[sp].d(T)[sp].d(T)[sp].d(T)[sp].d([m5C])[sp].d(T)[sp].[moe]([m5C])p.[moe](T)[sp].[moe](T)}$$$$ (last 3' nucleoside missing) | 0 score 0-7 |
| RNA1{[moe](G)[sp].[moe](T)p.[moe](T)p.[moe](T)p.[moe](T)p.d(T)[sp].d([m5C])[sp].d([m5C])[sp].d(A)[sp].d(T)[sp].d(T)[sp].d(T)[sp].d(T)[sp].d(T)[sp].d([m5C])[sp].[moe](T)p.[moe]([m5C])p.[moe](T)[sp].[moe](T)}$$$$ (last 3' nucleoside missing) | 0 score 0-7 |
| RNA1{[moe](G)[sp].[moe](T)p.[moe](T)p.[moe](T)p.[moe](T)p.d([m5C])[sp].d(G)[sp].d([m5C])[sp].d([m5C])[sp].d([m5C])[sp].d(G)[sp].d(T)[sp].d(T)[sp].d(A)[sp].d([m5C])[sp].[moe]([m5C])p.[moe](T)p.[moe]([m5C])[sp].[moe](A)}$$$$ (last 3' nucleoside missing) | 5.3 score 0-7 |
| RNA1{[moe](G)[sp].[moe](T)p.[moe](T)p.[moe](T)p.d(T)[sp].d(T)[sp].d([m5C])[sp].d([m5C])[sp].d(A)[sp].d(T)[sp].d(T)[sp].d(T)[sp].d(T)[sp].d(T)[sp].[moe]([m5C])p.[moe](T)p.[moe]([m5C])p.[moe](T)[sp].[moe](T)}$$$$ (last 3' nucleoside missing) | 0 score 0-7 |
| RNA1{[moe](G)[sp].[moe](T)p.[moe](T)p.[moe]([m5C])p.[moe](T)p.d(G)[sp].d(G)[sp].d(A)[sp].d(A)[sp].d(T)[sp].d([m5C])[sp].d(T)[sp].d(T)[sp].d(G)[sp].d(T)[sp].[moe](A)p.[moe](G)p.[moe](A)[sp].[moe](G)}$$$$ (last 3' nucleoside missing) | 4 score 0-7 |
| RNA1{[moe](G)[sp].[moe](T)p.[moe]([m5C])p.[moe](A)[sp].d(T)[sp].d([m5C])[sp].d(T)[sp].d([m5C])[sp].d(G)[sp].d(G)[sp].d(G)[sp].d(T)[sp].[moe](A)p.[moe](T)p.[moe](A)p.[moe](T)[sp].[moe](A)}$$$$ (last 3' nucleoside missing) | 4.3 score 0-7 |
| RNA1{[moe](G)[sp].[moe](T)p.[moe]([m5C])p.[moe](A)p.[moe](A)p.d([m5C])[sp].d([m5C])[sp].d(A)[sp].d(A)[sp].d(T)[sp].d(T)[sp].d(T)[sp].d(G)[sp].d([m5C])[sp].d(T)[sp].[moe](A)p.[moe](T)p.[moe](T)[sp].[moe]([m5C])}$$$$ (last 3' nucleoside missing) | 1 score 0-7 |
| RNA1{[moe](G)[sp].[moe](T)p.[moe]([m5C])p.[moe](A)p.[moe](G)p.d(A)[sp].d(T)[sp].d(T)[sp].d([m5C])[sp].d([m5C])[sp].d(T)[sp].d(A)[sp].d(A)[sp].d(A)[sp].d(T)[sp].[moe](A)p.[moe]([m5C])p.[moe](G)[sp].[moe]([m5C])}$$$$ (last 3' nucleoside missing) | 0 score 0-7 |
| RNA1{[moe](G)[sp].[moe](T)p.[moe]([m5C])p.[moe](A)p.[moe](G)p.d(A)[sp].d([m5C])[sp].d(T)[sp].d(T)[sp].d(A)[sp].d(T)[sp].d(T)[sp].d(G)[sp].d(A)[sp].d(G)[sp].[moe](G)p.[moe](A)p.[moe](T)[sp].[moe](G)}$$$$ (last 3' nucleoside missing) | 4 score 0-7 |
| RNA1{[moe](G)[sp].[moe](T)p.[moe]([m5C])p.[moe](A)p.[moe](T)[sp].d([m5C])[sp].d(T)[sp].d([m5C])[sp].d(G)[sp].d(G)[sp].d(G)[sp].d(T)[sp].d(A)[sp].[moe](T)p.[moe](A)p.[moe](T)[sp].[moe](A)}$$$$ (last 3' nucleoside missing) | 4.3 score 0-7 |
| RNA1{[moe](G)[sp].[moe](T)p.[moe]([m5C])p.[moe](A)p.[moe](T)p.[moe]([m5C])[sp].d(T)[sp].d([m5C])[sp].d(G)[sp].d(G)[sp].d(G)[sp].d(T)[sp].d(A)[sp].d(T)[sp].[moe](A)p.[moe](T)[sp].[moe](A)}$$$$ (last 3' nucleoside missing) | 4.7 score 0-7 |
| RNA1{[moe](G)[sp].[moe](T)p.[moe]([m5C])p.[moe](A)p.[moe](T)p.[moe]([m5C])p.d(T)[sp].d([m5C])[sp].d(G)[sp].d(G)[sp].d(G)[sp].d(T)[sp].d(A)[sp].d(T)[sp].d(A)[sp].d(T)[sp].[moe](A)p.[moe](A)[sp].[moe](A)}$$$$ (last 3' nucleoside missing) | 4 score 0-7 |

From the OligoGym collection
